According to ChEMBL document CHEMBL1126544, “Synthesis and biological evaluation of MC 1357, a new 20-epi-23-oxa-1,25-dihydroxy-vitamin D3 analogue with potent non-classical effects” (Bioorg Med Chem Lett, 1993):
pIC50: −log10 of the molar value.

Columns and labels:
Rattus norvegicus = assay: Compound was evaluated for calciuric effect (urinary calcium excretion in rats) at a dose of 0.5 ug/kg/day was administered orally for 7 days: Calcium excretion in control rats receiving vehicle alone of 20 umol/day.; assay type: functional, Urine
U-937 [1] = assay: Concentration to induce cell differentiation in U 937 cells; assay type: functional, cell-based; conditions: Homo sapiens
T-cell = assay: Concentration to inhibit T-cell activation in Murine MLR; assay type: functional, cell-based; conditions: Mus musculus
U-937 [2] = assay: Concentration to inhibit cell proliferation in U 937 cells; assay type: functional, cell-based; conditions: Homo sapiens

`C=C1/C(=C\C=C2/CCC[C@]3(C)[C@@H]([C@H](C)CCCC(C)(C)O)CC[C@@H]23)C[C@@H](O)C[C@@H]1O` [CALCITRIOL] gave a Ca2+ excretion (Rattus norvegicus) of 83 µmol/day, a Concentration (U-937 [1]) of 2 nM and a pIC50 (T-cell) of 10.30.
`C=C1/C(=C\C=C2/CCC[C@]3(C)[C@@H]([C@@H](C)COCCCC(C)(C)O)CC[C@@H]23)C[C@@H](O)C[C@@H]1O` showed a Ca2+ excretion (Rattus norvegicus) of 49 µmol/day, a Concentration (U-937 [1]) of 0.001 nM and a pIC50 (T-cell) of 12.22. For the same compound, the pIC50 (U-937 [2]) was 11.00.
